Reference: article PMC12650729 (Biology, 2025)
Read-outs that look alike come from different tables or passages of the source.

Tests used:
MCP-1 = experiment: Cytokine expression analysis, MCP-1 mRNA in CV-A9-infected RD cells; format: cell-based, Human; settings: MOI 0.001, 24 h
Method: (§1) Figure S13. Effect of bioactive compounds on the expression of MCP-1 and COX-
(§2) 2 induced by CV-A9 infection.
(§3) MCP-1 (a) and COX-2 (b) mRNA levels in RD cells were quantified by RT-qPCR at
(§4) 24 h.p.i following CV-A9 infection (MOI=0.001) and treatment with 50 μM velutin,
(§5) isorhamnetin, or (−)-epicatechin gallate. Representative curves of at least two

CV-A9 [1] = experiment: EC50 evaluation against CV-A9 in RD cells (viral nucleic acid load); format: cell-based; settings: read-out: EC50 against CV-A9
IRES = settings: 293T cells, Fluc/Rluc
CV-A9 3D^pol = CV-A9 3D^pol (Coxsackievirus A9, UniProt P21404); experiment: In vitro RNA primer extension assay using 3D^pol
TNF-α = experiment: Cytokine expression analysis, TNF-α mRNA in CV-A9-infected RD cells
CV-B3 = experiment: EC50 evaluation against CV-B3 in Vero E6 cells (viral nucleic acid load); format: cell-based
CV-A9 [2] = experiment: Post-entry inhibitory effect (viral RNA kinetics), CV-A9 in RD cells; format: cell-based; settings: 25 μM added at 2 h post-infection, cells and supernatants
IL-6 = experiment: Cytokine expression analysis, IL-6 mRNA in CV-A9-infected RD cells; settings: Homo sapiens, 24 h, read-out: inhibition of CV-A9-induced IL-6 upregulation
EV-A71 [3] = experiment: microbe, parasite or virus in culture; format: cell-based; settings: Enterovirus A, EVA71, RD, read-out: EC50 against EV-A71
EV-A71 [4] = experiment: Antiviral evaluation in vivo, EV-A71-infected BALB/c young mice (tissue viral load, H&E); settings: same dosing
in vitro [5] = settings: human
CV-A9 [6] = experiment: Primary screening for antiviral compounds by cytopathic effects (CPEs); settings: 10 μM, RD cells, 36 h.p.i.
CV-A9 [7] = experiment: Time-of-addition assay, CV-A9; format: cell-based; settings: 25 μM, RD cells, MOI 0.001
[8] = CC50 evaluation, CellTiter-Blue cell viability assay, RD cells; format: cell-based; settings: human, RD cells (human rhabdomyosarcoma), parallel to CV-A9 assay
CV-A9 2A^pro = experiment: FRET-based protease assay, CV-A9 2A protease; format: biochemical; settings: pre-incubated 30 min
Echo-11 = experiment: EC50 evaluation against Echo-11 in RD cells; format: cell-based
COX-2 = experiment: Cytokine expression analysis, COX-2 mRNA in CV-A9-infected RD cells; format: cell-based, Human; settings: MOI 0.001, 24 h
Method: as §1, §2, §3, §4, §5

CV-A9 [9] = experiment: EC50 evaluation against CV-A9 in Huh-7 cells; format: cell-based
CV-A9 [10] = experiment: organism not typed; format: cell-based; settings: for inhibition at 25 µM: RD
PV1 = experiment: microbe, parasite or virus in culture; format: cell-based, poliovirus 1; settings: Enterovirus C, RD, read-out: EC50 against PV1
in vitro [11] = settings: African green monkey
CV-A9 [12] = experiment: Drug combination, Zero Interaction Potency (ZIP) model, SynergyFinder, CV-A9-infected RD cells; settings: CV-A9 MOI 0.001, RD cells; -10 to 10 additive
CV-B3 3C^pro = CV-B3 3C^pro (Coxsackievirus B3, UniProt P03313); experiment: FRET-based protease assay, CV-B3 3C protease; format: biochemical; settings: 1 mM
[13] = Vero C1008, read-out: EC50 against CV-B3
[14] = Huh-7, read-out: EC50 against CV-A9
[15] = read-out: inhibition of CV-A9 attachment

CV-A9 3D^pol, sequence (P21404 1740-2201): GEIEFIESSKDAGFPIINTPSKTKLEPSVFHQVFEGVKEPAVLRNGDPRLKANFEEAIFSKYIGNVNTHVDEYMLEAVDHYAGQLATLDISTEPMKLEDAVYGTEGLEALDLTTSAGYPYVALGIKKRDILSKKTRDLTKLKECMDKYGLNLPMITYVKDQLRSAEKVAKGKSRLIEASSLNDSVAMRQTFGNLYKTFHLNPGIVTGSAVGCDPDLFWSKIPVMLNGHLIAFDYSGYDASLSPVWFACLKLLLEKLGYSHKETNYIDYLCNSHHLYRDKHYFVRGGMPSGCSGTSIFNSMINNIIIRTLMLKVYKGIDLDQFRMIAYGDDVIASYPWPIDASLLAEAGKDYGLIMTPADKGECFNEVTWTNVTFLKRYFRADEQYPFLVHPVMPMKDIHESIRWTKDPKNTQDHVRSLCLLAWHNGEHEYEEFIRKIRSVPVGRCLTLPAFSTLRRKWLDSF
CV-B3 3C^pro, sequence (P03313 1541-1723): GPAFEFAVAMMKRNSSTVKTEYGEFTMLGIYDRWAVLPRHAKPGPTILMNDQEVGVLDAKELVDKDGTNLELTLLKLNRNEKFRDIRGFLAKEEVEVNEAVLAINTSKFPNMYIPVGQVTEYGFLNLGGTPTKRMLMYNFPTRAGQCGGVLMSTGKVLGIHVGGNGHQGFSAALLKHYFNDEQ

Row | Structure (SMILES) | EC50 (CV-A9 [1]; RD) | inhibitory activity against IRES elements (IRES) | inhibitory activity against 3D^pol (CV-A9 3D^pol) | EC50 (CV-B3; [13]) | inhibition at 50 µM (IL-6) | EC50 (EV-A71 [3]) | intestinal histopathology (H&E) (EV-A71 [4]) | CC50 (in vitro [5]) | primary screening result by CV-A9-induced CPEs (CV-A9 [6]) | phase-specific activity, time-of-addition, CV-A9 (CV-A9 [7]) | CC50 [8] | inhibitory activity against 2A^pro (CV-A9 2A^pro) | EC50 (Echo-11; read-out: EC50 against Echo-11) | EC50 (CV-A9 [9]; [14]) | inhibition at 25 µM (CV-A9 [10]; [15]) | EC50 (PV1) | CC50 (in vitro [11]) | ZIP score of the combination with velutin (CV-A9 [12]) | other results
1 | COc1cc(O)c2c(=O)cc(-c3ccc(O)c(OC)c3)oc2c1 [velutin] | 0.76 µM | no inhibitory activity | no inhibitory activity | 2.26 µM | 70 to 80% | 2.18 µM | no hydropic degeneration of the epithelial cells | > 100 µM | identified as CV-A9 inhibitors | pan-stage suppression spanning both entry and post-entry phases | > 100 µM | no inhibitory activity | 0.69 µM | 3.7 µM | 40.5% | 0.96 µM | > 100 µM |  | inhibition at 50 µM (MCP-1; Homo sapiens, read-out: inhibition of CV-A9-induced MCP-1 upregulation): 20%; inhibition at 50 µM (TNF-α; Homo sapiens, RD, 24 h, read-out: inhibition of CV-A9-induced TNF-α upregulation): 70 to 80%; post-entry viral load kinetics, CV-A9 (CV-A9 [2]): significantly suppressed intra- and extracellular viral proliferation; inhibition at 50 µM (COX-2; Homo sapiens, read-out: inhibition of CV-A9-induced COX-2 upregulation): 70 to 80%; inhibition at 25 µM (CV-A9 [10]; read-out: inhibition of CV-A9 internalization): 38.2%
2 | Nc1ccc(C(=O)Nc2cccc(-c3nc(N4CCOCC4)c4oc5ncccc5c4n3)c2)cn1 [YM-201636, reference compound] |  |  |  |  |  |  | partial shedding of intestinal epithelial cells |  |  |  |  |  |  |  |  |  |  |  | 
3 | COc1cc(-c2oc3cc(O)cc(O)c3c(=O)c2O)ccc1O [isorhamnetin] |  | no inhibitory activity | no inhibitory activity |  | ~60% | 14.6 µM |  | > 100 µM | identified as CV-A9 inhibitors | pan-stage suppression spanning both entry and post-entry phases | > 100 µM | no inhibitory activity |  |  |  | 13.9 µM | > 100 µM | 3.126 | inhibition of CV-A9-induced MCP-1 upregulation (MCP-1; 50 μM): without significant effects; EC50 (CV-A9 [1]; RD cells, MOI 0.001): 2.23 µM; inhibition at 1000 µM (CV-B3 3C^pro): ~50%; inhibition of CV-A9-induced TNF-α upregulation (TNF-α; 50 μM, RD cells, MOI 0.001, 24 h): without significant effects; EC50 (CV-B3; Vero C1008, MOI 0.001, read-out: EC50 against CV-B3): 1.62 µM; EC50 (Echo-11; MOI 0.005, read-out: EC50 against Echo-11): 20.6 µM; inhibition of CV-A9-induced COX-2 upregulation (COX-2; 50 μM): without significant effects; EC50 (CV-A9 [9]; Huh-7 cells, read-out: EC50 against CV-A9): 9.07 µM
4 | O=C(O[C@@H]1Cc2c(O)cc(O)cc2O[C@@H]1c1ccc(O)c(O)c1)c1cc(O)c(O)c(O)c1 [(−)-epicatechin gallate] |  | no inhibitory activity | no inhibitory activity |  |  |  |  |  | identified as CV-A9 inhibitors | pan-stage suppression spanning both entry and post-entry phases |  | no inhibitory activity |  |  |  |  |  | 1.443 | CC50 (Vero E6 cells): > 100 µM; inhibition of CV-B3 3C^pro protease activity (CV-B3 3C^pro): about 50%; CC50 (Huh-7 cells): > 100 µM
5 | Oc1cccc(O)c1O [pyrogallol] | 10.5 µM |  |  | 1.78 µM |  | > 100 µM |  | > 100 µM | identified as CV-A9 inhibitors | exclusively targeted viral attachment | > 100 µM |  | > 100 µM | 8.83 µM | 32.4% | > 100 µM | > 100 µM | 1.684 | inhibition of CV-A9 internalization (CV-A9 [10]; 25 µM): without affecting cellular internalization
